Converted amounts (≈) assume the structure as drawn. Read-outs that look alike come from different tables or passages of the source.
Legend:
[1] = biological target: Escherichia coli LpxH (UDP-2,3-diacylglucosamine hydrolase) (Escherichia coli (strain K12), UniProt P43341); assay: 50% Inhibitory Concentration (IC50) to LpxH, UMP/CMP-Glo Glycosyltransferase Assay kit; type: biochemical
In short: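 LpxH hydrolysis of UDP-2,3-diacylglucosamine to lipid X and UMP; UMP produced is converted to ATP and quantified by luciferase luminescence (UMP/CMP-Glo). Inhibition taken from reduced light output.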

E. coli (ATCC 25922) = assay: Minimal Inhibitory Concentration (MIC) assay, E. coli; type: cell-based; settings: Escherichia coli, read-out: MIC E. coli ATCC 25922
In short: (§1)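 Broth microdilution in cation-adjusted Mueller Hinton broth, inoculum 5×10^5 CFU/mL, compounds 2-fold serially diluted from 10 mM DMSO stocks. Plates incubated 20 hours at 35° C in ambient air; MIC (μg/mL) is the lowest concentration preventing visible growth.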

[2] = test system: K. pneumonia (ATCC 43816); assay: Minimal Inhibitory Concentration (MIC) assay, K. pneumonia; type: cell-based; settings: Klebsiella pneumoniae, read-out: MIC K. pneumoniae ATCC43816
In short: as §1

[3] = ATCC25922, E. coli ATCC 25922, CAMHB, 20 hours at 35° C.
[4] = K. pneumoniae ATCC43816, CAMHB, 20 hours at 35° C.

Chain of Escherichia coli LpxH (UDP-2,3-diacylglucosamine hydrolase) (P43341 whole entry): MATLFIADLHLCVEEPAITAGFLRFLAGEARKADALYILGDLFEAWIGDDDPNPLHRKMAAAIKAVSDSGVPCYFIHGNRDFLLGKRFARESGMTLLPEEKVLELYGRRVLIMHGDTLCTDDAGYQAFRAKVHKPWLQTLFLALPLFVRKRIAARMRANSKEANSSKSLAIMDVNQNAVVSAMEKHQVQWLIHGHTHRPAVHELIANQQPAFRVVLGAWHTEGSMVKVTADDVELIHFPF

SMILES	IC50 [1] [µM]	MIC (E. coli (ATCC 25922); [3]) [mg/L]	MIC [2, 4] [mg/L]	MIC (E. coli (ATCC 25922); ATCC25922, 20 h) [mg/L]	MIC ([2]; ATCC43816, 20 h) [mg/L]
O=C1OC(CN2CC3(CNC3)C2)CN1c1ccc(S(=O)(=O)N2CCN(c3cc(C(F)(F)F)cc(Cl)n3)CC2)cc1 (stereo not drawn) [Example 32, 3-[4-[4-[6-Chloro-4-(trifluoromethyl)-2-pyridyl]piperazin-1-yl]sulfonylphenyl]-5-(2,6-diazaspiro[3.3]heptan-2-ylmethyl)oxazolidin-2-one]	0.025	8.94 (≈ 14.9 µM)	8.94 (≈ 14.9 µM)		
O=C1CC(NC2CCNCC2)CN1c1ccc(S(=O)(=O)N2CCN(c3cc(C(F)(F)F)cc(Cl)n3)CC2)cc1 (stereo not drawn) [Example 60, 1-[4-[4-[6-Chloro-4-(trifluoromethyl)-2-pyridyl]piperazin-1-yl]sulfonylphenyl]-4-(4-piperidylamino)pyrrolidin-2-one]	0.00852	1.95 (≈ 3.32 µM)	3.9 (≈ 6.64 µM)		
COc1cc(C(F)(F)c2ccccc2)nc(N2CCN(S(=O)(=O)c3ccc(N4CC(N)CC4=O)cc3)CC2)n1 (stereo not drawn) [Example 82, 4-Amino-1-[4-[4-[4-[difluoro(phenyl)methyl]-6-methoxy-pyrimidin-2-yl]piperazin-1-yl]sulfonylphenyl]pyrrolidin-2-one]	0.247	6.98 (≈ 12.5 µM)	6.98 (≈ 12.5 µM)		
NCCN1CCC[C@H]2OC(=O)N(c3ccc(S(=O)(=O)N4CCN(c5cc(C(F)(F)F)cc(Cl)n5)CC4)cc3)[C@H]2C1 [Example 25, (3aS,8aR)-5-(2-aminoethyl)-3-[4-[4-[6-chloro-4-(trifluoromethyl)-2-pyridyl]piperazin-1-yl]sulfonylphenyl]-3a,4,6,7,8,8a-hexahydrooxazolo[4,5-c]azepin-2-one]	0.0249	2.6 (≈ 4.31 µM)	2.6 (≈ 4.31 µM)		
O=C1CC2(CNC2)CN1c1ccc(S(=O)(=O)N2CCN(c3cc(C(F)(F)F)cc(Cl)n3)CC2)cc1 [Example 12, 6-[4-[4-[6-Chloro-4-(trifluoromethyl)-2-pyridyl]piperazin-1-yl]sulfonylphenyl]-2,6-diazaspiro[3.4]octan-7-one]	0.0698	2.01 (≈ 3.79 µM)	4.03 (≈ 7.6 µM)		
NC1CC(=O)N(c2ccc(S(=O)(=O)N3CCN(c4cc(C(F)(F)c5ccccn5)cc(Cl)n4)CC3)cc2)C1 (stereo not drawn) [Example 89, 4-Amino-1-[4-[4-[6-chloro-4-[difluoro(2-pyridyl)methyl]-2-pyridyl]piperazin-1-yl]sulfonylphenyl] pyrrolidin-2-one]	0.0604	0.88 (≈ 1.56 µM)	0.88 (≈ 1.56 µM)		
NCCNC1CC(=O)N(c2ccc(S(=O)(=O)N3CCN(c4cc(C(F)(F)F)cc(Cl)n4)CC3)cc2)C1 (stereo not drawn) [Example 45, 4-(2-Aminoethylamino)-1-[4-[4-[6-chloro-4-(trifluoromethyl)-2-pyridyl]piperazin-1-yl]sulfonylphenyl]pyrrolidin-2-one]	0.0457	3.65 (≈ 6.67 µM)	7.29 (≈ 13.3 µM)		
Cc1nc(N2CCN(S(=O)(=O)c3ccc(N4C[C@H](N)CC4=O)cc3)CC2)cc(C(F)(F)c2ccccc2)n1 [Example 83, (4R)-4-Amino-1-[4-[4-[6-[difluoro(phenyl)methyl]-2-methyl-pyrimidin-4-yl]piperazin-1-yl]sulfonylphenyl]pyrrolidin-2-one]	0.00369	1.7 (≈ 3.13 µM)	1.7 (≈ 3.13 µM)		
CN(C)C1CN(CC2CC(=O)N(c3ccc(S(=O)(=O)N4CCN(c5cc(C(F)(F)F)cc(Cl)n5)CC4)cc3)C2)C1 (stereo not drawn) [Example 42, 1-[4-[4-[6-Chloro-4-(trifluoromethyl)-2-pyridyl]piperazin-1-yl]sulfonylphenyl]-4-[[3-(dimethylamino)azetidin-1-yl]methyl]pyrrolidin-2-one]	0.015	10.4 (≈ 17.2 µM)	10.4 (≈ 17.2 µM)		
CN1CCN(CC2CC(=O)N(c3ccc(S(=O)(=O)N4CCN(c5cc(C(F)(F)F)cc(Cl)n5)CC4)cc3)C2)CC1 (stereo not drawn) [Example 36, 1-[4-[4-[6-Chloro-4-(trifluoromethyl)-2-pyridyl]piperazin-1-yl]sulfonylphenyl]-4-[(4-methylpiperazin-1-yl)methyl]pyrrolidin-2-one]	0.0266	1.88 (≈ 3.13 µM)	3.76 (≈ 6.26 µM)		
O=C1CC2(CCCCN2)CN1c1ccc(S(=O)(=O)N2CCN(c3cc(C(F)(F)F)cc(Cl)n3)CC2)cc1 (stereo not drawn) [Example 10, 2-[4-[4-[6-Chloro-4-(trifluoromethyl)-2-pyridyl]piperazin-1-yl]sulfonylphenyl]-2,6-diazaspiro[4.5]decan-3-one]	0.0197	1.05 (≈ 1.88 µM)	4.2 (≈ 7.53 µM)		
O=C1O[C@H]2CCNC[C@H]2N1c1ccc(S(=O)(=O)N2CCN(c3cc(C(F)(F)F)cc(Cl)n3)CC2)cc1 [Example 16, (3aR,7aS)-3-[4-[4-[6-chloro-4-(trifluoromethyl)-2-pyridyl]piperazin-1-yl]sulfonylphenyl]-3a,4,5,6,7,7a-hexahydrooxazolo[4,5-c]pyridin-2-one]	0.0385	1.03 (≈ 1.89 µM)	1.03 (≈ 1.89 µM)		
O=C1O[C@@H]2CNCC[C@@H]2N1c1ccc(S(=O)(=O)N2CCN(c3cc(C(F)(F)F)cc(Cl)n3)CC2)cc1 [Example 17, (3aR,7aS)-1-[4-[4-[6-chloro-4-(trifluoromethyl)-2-pyridyl]piperazin-1-yl]sulfonylphenyl]-3a,4,5,6,7,7a-hexahydrooxazolo[5,4-c]pyridin-2-one]	0.482			1.82 (≈ 3.33 µM)	3.64 (≈ 6.67 µM)
NC1(C2CN(CC3CC(=O)N(c4ccc(S(=O)(=O)N5CCN(c6cc(C(F)(F)F)cc(Cl)n6)CC5)cc4)C3)C2)CC1 (stereo not drawn) [Example 39, 4-[[3-(1-Aminocyclopropyl)azetidin-1-yl]methyl]-1-[4-[4-[6-chloro-4-(trifluoromethyl)-2-pyridyl]piperazin-1-yl]sulfonylphenyl]pyrrolidin-2-one]	0.013	0.96 (≈ 1.57 µM)	1.92 (≈ 3.13 µM)		
NC1CC(=O)N(c2ccc(S(=O)(=O)N3CCN(c4cc(C(F)(F)c5ccccc5)cc(Cl)n4)CC3)cc2)C1 (stereo not drawn) [Example 73, 4-Amino-1-[4-[4-[6-chloro-4-[difluoro(phenyl)methyl]-2-pyridyl]piperazin-1-yl]sulfonylphenyl]pyrrolidin-2-one]	0.032	0.44 (≈ 0.783 µM)	0.44 (≈ 0.783 µM)		
NC1CN(CC2CN(c3ccc(S(=O)(=O)N4CCN(c5cc(C(F)(F)F)cc(Cl)n5)CC4)cc3)C(=O)O2)C1 (stereo not drawn) [Example 31, 5-[(3-Aminoazetidin-1-yl)methyl]-3-[4-[4-[6-chloro-4-(trifluoromethyl)-2-pyridyl]piperazin-1-yl]sulfonylphenyl]oxazolidin-2-one]	0.00696	2.15 (≈ 3.74 µM)	4.31 (≈ 7.5 µM)		
NC1CN(CC2CC(=O)N(c3ccc(S(=O)(=O)N4CCN(c5cc(C(F)(F)F)cc(Cl)n5)CC4)cc3)C2)C1 (stereo not drawn) [Example 40, 4-[(3-Aminoazetidin-1-yl)methyl]-1-[4-[4-[6-chloro-4-(trifluoromethyl)-2-pyridyl]piperazin-1-yl]sulfonylphenyl]pyrrolidin-2-one]	0.0209	1.79 (≈ 3.12 µM)	1.79 (≈ 3.12 µM)		
NC1CC(=O)N(c2ccc(S(=O)(=O)N3CCN(c4cc(C(F)F)cc(Cl)n4)CC3)cc2)C1 (stereo not drawn) [Example 68, 4-Amino-1-[4-[4-[6-chloro-4-(difluoromethyl)-2-pyridyl]piperazin-1-yl]sulfonylphenyl]pyrrolidin-2-one]	0.259	2.59 (≈ 5.33 µM)	10.3 (≈ 21.3 µM)		
N#CC1(c2cc(Cl)nc(N3CCN(S(=O)(=O)c4ccc(N5CC(N)CC5=O)cc4)CC3)c2)CC1 (stereo not drawn) [Example 71, 1-[2-[4-[4-(4-Amino-2-oxo-pyrrolidin-1-yl)phenyl]sulfonylpiperazin-1-yl]-6-chloro-4-pyridyl]cyclopropanecarbonitrile]	0.591	12.5 (≈ 25 µM)	12.5 (≈ 25 µM)		
O=C1CC2NCCC2N1c1ccc(S(=O)(=O)N2CCN(c3cc(C(F)(F)F)cc(Cl)n3)CC2)cc1 (stereo not drawn) [Example 20, 4-[4-[4-[6-Chloro-4-(trifluoromethyl)-2-pyridyl]piperazin-1-yl]sulfonylphenyl]-1,2,3,3a,6,6a-hexahydropyrrolo[3,2-b]pyrrol-5-one]	0.0623	1.77 (≈ 3.34 µM)	3.54 (≈ 6.68 µM)		
O=C1CC(NCCO)CN1c1ccc(S(=O)(=O)N2CCN(c3cc(C(F)(F)F)cc(Cl)n3)CC2)cc1 (stereo not drawn) [Example 46, 1-[4-[4-[6-Chloro-4-(trifluoromethyl)-2-pyridyl]piperazin-1-yl]sulfonylphenyl]-4-(2-hydroxyethylamino)pyrrolidin-2-one]	0.00912	1.83 (≈ 3.34 µM)	3.65 (≈ 6.66 µM)		
N[C@@H]1CC(=O)N(c2ccc(S(=O)(=O)N3CCN(c4cc(C(F)(F)C5C6COCC65)cc(Cl)n4)CC3)cc2)C1 (stereo partly drawn) [Example 101, (4R)-4-amino-1-[4-[4-[6-chloro-4-[difluoro(3-oxabicyclo[3.1.0]hexan-6-yl)methyl]-2-pyridyl]piperazin-1-yl]sulfonylphenyl]pyrrolidin-2-one]	0.0968	0.44 (≈ 0.775 µM)	0.89 (≈ 1.57 µM)		
N[C@@H]1CC(=O)N(c2ccc(S(=O)(=O)N3CCN(c4cc(C(F)(F)C5CNC5)cc(Cl)n4)CC3)cc2)C1 [Example 109, (4R)-4-amino-1-[4-[4-[4-[azetidin-3-yl(difluoro)methyl]-6-chloro-2-pyridyl]piperazin-1-yl]sulfonylphenyl]pyrrolidin-2-one]	0.0684	16.4 (≈ 30.3 µM)	16.4 (≈ 30.3 µM)		
NC1CCN(c2ccc(S(=O)(=O)N3CCN(c4cc(C(F)(F)F)cc(Cl)n4)CC3)cc2)C1=O (stereo not drawn) [Example 8, 3-Amino-1-[4-[4-[6-chloro-4-(trifluoromethyl)-2-pyridyl]piperazin-1-yl]sulfonylphenyl]pyrrolidin-2-one]	0.117	3.86 (≈ 7.66 µM)	7.72 (≈ 15.3 µM)		

— patent US20250011300A1, “PIPERAZINYLSULFONYLARYL COMPOUNDS FOR TREATMENT OF BACTERIAL INFECTIONS” (Hoffmann-La Roche Inc., priority 2021, published 2025)
